How the values were obtained:
Hh-signalling cascade = experiment: Inhibition of SHh-induced alkaline phosphatase in C3H10T1/2 cells (Hh-signalling cascade inhibition); format: cell-based; details: Mus musculus, C3H 10T1/2, half maximal inhibition of SHh (0.3 μg/ml) stimulation of cell alkaline phosphatase
Source text: C3H10T1/2 Cells were used for identification of inhibitors of SHh-protein signaling cascade. SHh-protein activates C3H10T1/2 cells, that leads to their osteogenic differentiation [1) Kinto N., Iwamoto M., Enomoto-Iwamoto M., Noji S., Ohuchi H., Yoshioka H., Kataoka H., Wada Y., Yuhao G., Takahashi H. E., Yoshiki S., Yamaguchi A. Fibroblasts expressing Sonic hedgehog induce osteoblast differentiation and ectopic bone formation. FEBS Lett. 1997; 404(2-3): 319-23. 2) Spinella-Jaegle S., Rawadi G., Kawai S., Gallea S., Faucheu C., Mollat P., Courtois B., Bergaud B., Ramez V., Blanchet A. M., Adelmant G., Baron R., Roman-Roman S. Sonic hedgehog increases the commitment of pluripotent mesenchymal cells into the osteoblastic lineage and abolishes adipocytic differentiation. J. Cell Sci. 2001; 114(Pt 11): 2085-94] and, in particular, to expression enhancement of alkaline phosphatase enzyme.
The cells were cultivated in DMEM medium with 10% embryonal calfish serum in incubator at 37° C., 100% humidity and 5% CO2 content. The cells were placed in 384-well plates and left for night. On the next day the tested compounds in concentration of 10 μM were added to the cells, incubated for 30 min, then recombinant (R & D Systems, USA) SHh protein in concentration of 0.3 μg/ml was added and incubation was continued for 3 days. Cells with DMSO instead of a test compound and cells without SHh protein were used as test control. For determination of the cell alkaline phosphatase activity the cells were lysed in the buffer containing 0.2% Triton-X100, lisates were incubated together with proluminescent substrate CSPD (Applied Biosystems, USA) and the resultant luminescence was measured using reader VICTOR^2V (PerkinElmer, USA).
The ability of the compounds to inhibit Hh-signalling cascade was determined using C3H10T1/2 cells in 384-well plates as described in example 1. The compounds were added in triplicates in various concentrations, prepared by multiple dilution of starting solutions (concentration dependences of cell alkaline phosphatase inhibition induced by the addition of tested compounds are shown in FIG. 1). Activity of the compounds was characterized by their concentrations produced half maximal inhibition of stimulation of cell alkaline phosphatase SHh (IC50).

Row | Compound | IC50 (Hh-signalling cascade) | melting point
1 | Cc1ccc(C)c(N2CCN(C(=O)Cn3nc(C)c4c(C)n(-c5ccccc5)nc4c3=O)CC2)c1 [I-1005, 2-Phenyl-3,4-dimethyl-6-{2-[4-(2,5-dimethylphenyl)piperazin-1-yl]-2-oxoethyl}-2,6-dihydro-7H-pyrazolo[3,4-d]pyridazin-7-one] | < 500 nM | 232 to 234 °C
2 | O=C(c1cc2sccc2n1Cc1ccc(F)cc1)N1CCC(C(=O)N2CCOCC2)CC1 [V-1001, [4-(4-Fluorobenzyl)-4H-thieno[3,2-b]pyrrol-5-yl][4-(morpholine-4-carbonyl)piperidin-1-yl]methanone] | < 500 nM | 120 to 122 °C
3 | Cc1cc(C)cc(NC(=O)C2CCN(C(=O)c3cc4sccc4n3Cc3ccc(F)cc3)CC2)c1 [V-1002, 1-[4-(4-Fluorobenzyl)-4H-thieno[3,2-b]pyrrole-5-carbonyl]piperidine-4-carboxylic acid (3,5-dimethylphenyl)amide] | < 500 nM | 203 to 205 °C
4 | COc1ccc(Cn2c(C(=O)N3CCC(C(=O)N4CCN(C)CC4)CC3)cc3sccc32)cc1 [V-1053, [4-(4-Methoxybenzyl)-4H-thieno[3,2-b]pyrrol-5-yl]-[4-(4-methylpiperazine-1-carbonyl)piperidin-1-yl]methanone] | < 500 nM | 
5 | CN1CCN(C(=O)C2CCN(C(=O)c3cc4sccc4n3Cc3ccc(N(C)C)cc3)CC2)CC1 [V-1054, [4-(4-Dimethylaminobenzyl)-4H-thieno[3,2-b]pyrrol-5-yl]-[4-(4-methylpiperazine-1-carbonyl)piperidin-1-yl]methanone] | < 500 nM | 
6 | CN1CCN(C(=O)C2CCN(C(=O)c3cc4sccc4n3Cc3ccc4c(c3)OCO4)CC2)CC1 [V-1055, [4-(3,4-Methylendioxybenzyl)-4H-thieno[3,2-b]pyrrol-5-yl]-[4-(4-methylpiperazine-1-carbonyl)piperidin-1-yl]methanone] | < 500 nM | 
7 | CCOc1ccc(NC(=O)c2ccnc(N3CCC(C(=O)Nc4ccc(F)cc4)CC3)c2)cc1 [VI-1007, 3,4,5,6-Tetrahydro-2H-[1,2′]bipyridinyl-4,4′-carboxylic acid 4′-[(4-ethoxyphenyl)amide] 4-[(4-fluorophenyl)amide]] | < 5000 nM | 
8 | CS(=O)(=O)N1CCCc2cc(C(=O)Nc3ccc4c(c3)OCO4)ccc21 [VII-1005, 1-Methylsulfonyl-1,2,3,4-tetrahydroquinoline-6-carboxylic acid (benzo[1,3]dioxol-5-yl)amide] | < 500 nM | 
9 | O=C(Nc1ccc(F)cc1)c1ccc2c(c1)CCCN2S(=O)(=O)c1ccccc1 [VII-1012, 1-Phenylsulfonyl-1,2,3,4-tetrahydroquinoline-6-carboxylic acid (4-fluorophenyl)amide] | < 5000 nM | 
10 | COc1ccc(NC(=O)c2ccc3c(c2)CCCN3S(=O)(=O)c2ccc(C)cc2)cc1 [VII-1014, 1-Tosyl-1,2,3,4-tetrahydroquinoline-6-carboxylic acid (4-methoxyphenyl)amide] | < 5000 nM | 
11 | Cc1ccc(NC(=O)c2ccc3c(c2)CCCN3S(=O)(=O)c2ccc(Cl)cc2)cc1C [VII-1017, 1-(4-Chlorophenylsulfonyl)-1,2,3,4-tetrahydroquinoline-6-carboxylic acid (3,4-dimethylphenyl)amide] | < 500 nM | 
12 | Cc1ccc(NC(=O)c2ccc3c(c2)CCCN3S(=O)(=O)c2ccc(Br)cc2)cc1 [VII-1020, 1-(4-Bromophenylsulfonyl)-1,2,3,4-tetrahydroquinoline-6-carboxylic acid p-tolylamide] | < 5000 nM | 
13 | CCS(=O)(=O)N1CCCc2cc(C(=O)Nc3ccccc3F)ccc21 [VII-1025, 1-Ethylsulfonyl-1,2,3,4-tetrahydroquinoline-6-carboxylic acid (2-fluorophenyl)amide] | < 5000 nM | 
14 | CN1CCc2c(sc(NC(=O)C3CC3)c2-c2nc3ccccc3s2)C1 [VIII-1003, Cyclopropanecarboxylic acid (3-benzo[d]thiazol-2-yl-6-methyl-4,5,6,7-tetrahydrothieno[2,3-c]pyridin-2-yl)amide] | < 5000 nM | 
15 | CC(=O)N1CCc2c(sc(NC(=O)C3CCCCC3)c2-c2nc3ccccc3s2)C1 [VIII-1016, Cyclohexanecarboxylic acid (6-acetyl-3-benzo[d]thiazol-2-yl-4,5,6,7-tetrahydrothieno[2,3-c]pyridin-2-yl)amide] | < 5000 nM | 
16 | CC(=O)N1CCc2c(sc(NC(=O)Cc3ccccc3)c2-c2nc3ccccc3s2)C1 [VIII-1017, N-(6-Acetyl-3-benzo[d]thiazol-2-yl-4,5,6,7-tetrahydrothieno[2,3-c]pyridin-2-yl)-2-phenylacetamide] | < 50000 nM | 
17 | COC(=O)c1ccc(C(=O)Nc2sc3c(c2-c2nc4ccccc4s2)CCN(C(C)C)C3)cc1 [VIII-1025] | < 50000 nM | 
18 | CN1CCc2c(sc(NC(=O)c3cccc(C(F)(F)F)c3)c2-c2nc3ccccc3s2)C1 [VIII-1026, N-(3-(Benzo[d]thiazol-2-yl)-6-methyl-4,5,6,7-tetrahydrothieno[2,3-c]pyridin-2-yl)-3-trifluoromethylbenzamide] | < 50000 nM | 

Other lines, results leading:

Row | IC50 (Hh-signalling cascade) | melting point | Compound
19 | < 500 nM | 257 to 259 °C | Cc1nn(CC(=O)N2CCN(c3cccc(Cl)c3)CC2)c(=O)c2nn(-c3ccccc3)c(C)c12 [I-1002, 2-phenyl-3,4-dimethyl-6-{2-[4-(3-chlorophenyl)piperazin-1-yl]-2-oxoethyl}-2,6-dihydro-7H-pyrazolo[3,4-d]pyridazin-7-one]
20 | < 500 nM | 252 to 254 °C | Cc1nn(CC(=O)N2CCN(c3ccccc3)CC2)c(=O)c2nn(-c3ccccc3)c(C)c12 [I-1003, 2-Phenyl-3,4-dimethyl-6-{2-[4-phenylpiperazin-1-yl]-2-oxoethyl}-2,6-dihydro-7H-pyrazolo[3,4-c]pyridazin-7-one]
21 | < 500 nM | 249 to 251 °C | Cc1cccc(N2CCN(C(=O)Cn3nc(C)c4c(C)n(-c5ccccc5)nc4c3=O)CC2)c1C [I-1004, 2-Phenyl-3,4-dimethyl-6-{2-[4-(2,3-dimethylphenyl)piperazin-1-yl]-2-oxoethyl}-2,6-dihydro-7H-pyrazolo[3,4-d]pyridazin-7-one]
22 | < 500 nM | 257 to 259 °C | Cc1nn(CC(=O)N2CCN(c3ccc(F)cc3)CC2)c(=O)c2nn(-c3ccccc3)c(C)c12 [I-1006, 2-Phenyl-3,4-dimethyl-6-{2-[4-(4-fluorophenyl)piperazin-1-yl]-2-oxoethyl}-2,6-dihydro-7H-pyrazolo[3,4-d]pyridazin-7-one]
23 | < 500 nM | 240 to 242 °C | Cc1nn(CC(=O)N2CCN(c3ccccc3F)CC2)c(=O)c2nn(-c3ccccc3)c(C)c12 [I-1007, 2-Phenyl-3,4-dimethyl-6-{2-[4-(2-fluorophenyl)piperazin-1-yl]-2-oxoethyl}-2,6-dihydro-7H-pyrazolo[3,4-d]pyridazin-7-one]
24 | < 500 nM | 193 to 195 °C | Cc1nn(C(C)C(=O)N2CCN(c3ccccc3)CC2)c(=O)c2nn(-c3ccccc3)c(C)c12 (centres unmarked) [I-1008, 2 Phenyl-3,4-dimethyl-6-[1-methyl-2-(4-phenylpiperazin-1-yl)-2-oxoethyl]-2,6-dihydro-7H-pyrazolo[3,4-d]pyridazin-7-one]
25 | < 500 nM | 194 to 196 °C | Cc1nn(C(C)C(=O)N2CCN(c3cccc(Cl)c3)CC2)c(=O)c2nn(-c3ccccc3)c(C)c12 (centres unmarked) [I-1009, 2-Phenyl-3,4-dimethyl-6-{1-methyl-2-[4-(3-chlorophenyl)piperazin-1-yl]-2-oxoethyl}-2,6-dihydro-7H-pyrazolo[3,4-d]pyridazin-7-one]
26 | < 500 nM | 132 to 135 °C | Cc1nn(C(C)C(=O)N2CCN(C3CCCCC3)CC2)c(=O)c2nn(-c3ccccc3)c(C)c12 (centres unmarked) [I-1010, 2-Phenyl-3,4-dimethyl-6-{1-methyl-2-[4-cyclohexylpiperazin-1-yl]-2-oxoethyl}-2,6-dihydro-7H-pyrazolo[3,4-d]pyridazin-7-one]
27 | < 500 nM | 136 to 138 °C | Cc1cccc(N2CCN(C(=O)C(C)n3nc(C)c4c(C)n(-c5ccccc5)nc4c3=O)CC2)c1C (centres unmarked) [I-1011, 2-Phenyl-3,4-dimethyl-6-{1-methyl-2-[4-(2,3-dimethylphenyl)piperazin-1-yl]-2-oxoethyl}-2,6-dihydro-7H-pyrazolo[3,4-d]pyridazin-7-one]
28 | < 500 nM | 152 to 154 °C | Cc1nn(C(C)C(=O)N2CCN(Cc3ccccc3)CC2)c(=O)c2nn(-c3ccccc3)c(C)c12 (centres unmarked) [I-1012, 2-Phenyl-3,4-dimethyl-6-{1-methyl-2-[4-benzylpiperazin-1-yl]-2-oxoethyl}-2,6-dihydro-7H-pyrazolo[3,4-d]pyridazin-7-one]
